Results published in patent publication US9446087B2, “Anti-resorptive and bone building dietary supplements and methods of use” (priority 2006, dated 2016).
Values joined by “and” are separate entries in the source; they are usually repeats but may differ in a detail not shown here. Identical values can stand only once. Marks after values point to notes of the source that are not given here.

Assays:
BMP-2 promoter = assay: BMP2 Promoter assay (2T3-BMP2-Luciferase cells, luciferase); type: cell-based, murine
BMP-2 protein = assay: BMP-2 Protein Expression Assay (Hu09 cells, ELISA); type: cell-based
Method: The cells are treated with different proteasome inhibitors for 24 hours. After incubation, the conditioned media is transferred into microcentrifuge tubes and centrifuged at 14,000 rpm for 2-3 minutes to remove cellular debris. The concentration of BMP-2 protein in the supernatant is then determined using the standard BMP-2 Elisa Kit (R&D ELISA KIT DBP200). Recombinant hBMP-2 (R&D) is used as a standard.

BMP-2 = BMP-2 Gene Expression Assay (MG-63 cells, real time PCR); type: cell-based, human; conditions: 10 μg/ml
Method: It is also possible to test for BMP-2 gene expression and protein expression using assays similar to those described above for testing BMP-2 promoter activity. In particular, for gene expression, the human osteosarcoma cell line, MG-63 (ATCC# CRL-1427), is maintained in phenol-red containing MEM (as recommended by ATCC) at 37° C. and 5% CO2. Twenty-four hours prior to experimentation, 3×10^5 cells are seeded in 12-well plates in phenol-red free MEM. […] After an overnight incubation, RNA is extracted using conventional trizol/guanidine isothiocyanate based lysis. The isolated RNA was digested with RNase-free DNase I to remove any DNA contamination and then reverse transcribed to cDNA using random hexamer as well as oligo(dT) primers according to the manufacturer's instructions (Stratagene). Quantitative real time PCR is performed using FAM-labeled specific primers for BMP-2 and HEX-labeled specific primers for 18S rRNA (Invitrogen). All reactions are carried out in triplicate and the relative amount of mRNAs in treated versus untreated samples is calculated using the comparative CT method established by Applied Biosystems (2001). Gene expression changes of 2-fold or greater are considered significant.

Neonatal murine calvaria = assay: Calvarial Assay to Measure Bone Growth; type: cell-based, Swiss white mice
Method: Neonatal murine calvaria from 4 day old Swiss white mice are excised, placed into BGJ media (Sigma), and cut in half along the midline suture. One milliliter of BGJ media supplemented with 0.1% bovine serum albumin (BSA) is added to each well of a 12 well tissue culture plate (Costar) to which the relevant factors or vehicles are added. Each half calvaria is placed on a stainless steel grid in the above media at the media/air interface. Usually 4 bones per experimental group are used. […] Factors to be tested are added on Day 0 (the day of dissection) and media is changed at 24 and 96 hours (if a 7 day assay is required). Calvaria are maintained in humidified air (5% Co2), at 37° C. Following the period of incubation, the calvaria are then removed and fixed overnight in 10% formalin. The calvaria are then decalcified in 14% EDTA overnight and are then embedded in paraffin wax. Sections are then cut, using a standard microtome, along the midline suture to reveal the coronal suture and the region posterior to this suture. Four micrometer sections were taken initially and at two sequential […] depths. Sections are placed on coated glass slides (Superfrost plus, Fisher Scientific, Pittsburgh, Pa.) and stained with hematoxylin and eosin. The total and new bone area (expressed as mm^2), suture thickness (mm), and number of cells lining the bone surface are determined in the section posterior to the […] suture. Histomorphometric analysis is performed using the Osteomeasure System (Osteometrics INC, Atlanta, Ga.).

RANK-L [1] = assay: Inhibition of RANK-L production/release (IL-1b stimulated MG-63 cells, ELISA); type: cell-based, human
Method: Weigh between 150 to 250 mg of each ingredient into a 15 ml conical bottomed tube. […] For solvent control, mix 1.5 ml DMSO, 0.9 ml ethanol, and 0.6 ml water. Vortex thoroughly. Sonicate for 10 minute in water bath, room temperature. Vortex thoroughly again. Dilute ingredient stocks in fresh phenol red-free media. Human osteosarcoma cell line, MG-63 (ATCC #CRL-1427), is maintained in phenol-red containing MEM (as recommended by ATCC) at 37° C. and 5% CO2. Twenty-four hours prior to experimentation, 3×10^5 cells are seeded in 12-well plates in phenol-red free MEM. […] Stock solution of TGF-beta is 30 μg/ml (from R&D Systems, cat #100-B-001). After pretreatment incubation period, […] IL-1b (Calbiochem (catalog #407615) and stock solution at 10 μg/ml, cat #407615) were added to the cell cultures for 18 hours at 37° C. Supernatant media from the treated and stimulated cells were removed and total RANK-L proteins were measured using RANK-L ELISA (in triplicate) as described by manufacturer (from APOTECH, catalog #APO-54N-016-k101). The resulting protein quantity was compared to that of media (null) treated stimulated cells to determine percent decrease in total RANK-L protein.

[2] = test system: calvaria (skull bones) from 4 day old pups; assay: Calvarial Assay to Measure Inhibition of Bone Resorption (45Ca release); type: cell-based, CD-1 mice
Method: In order to label cells of newborn mice in utero, pregnant CD-1 female mice (at timed day 15) were injected with ^45Ca (25 uCi/mouse). […] The bones were incubated at 37° C. in a 5% CO2 humidified incubator for a period of 24 hours following which they were transferred to wells containing 1 ml media with factors added (IL-1, PTH and or compounds.) The treated bones were incubated under the above conditions for a further 72 hours. […] The results were expressed as % ^45Ca release and can be further reported as T/C ratios. For some factors and compounds, modification of this procedure can be used. As most of the osteoclasts are formed in the calvaria following the preincubation period, the factors that affect osteoclast formation may have a greater effect during the preincubation period. Thus, for a number of the compounds, they were included in the preincubation media.

RANK-L [3] = assay: RANK-L gene expression (IL-1b stimulated MG63 cells, qPCR); type: cell-based, human; conditions: 3 μg/ml, stimulus alone
Method: Punicalagin test samples are extracted from pomegranates, including from pomegranate peels, skins, fleshy fruit, and seeds using 100% DMSO at 100 mg/ml. Particulate matter in the extraction is not removed. The punicalagin test samples are diluted in MEM without phenol red (estrogenic) and 0.1% FBS to lower background signaling to ten times the final concentrations. Final DMSO concentrations are kept below 0.2% and are kept constant during treatments. DMSO solvent control is used in the untreated group.
MG63 cells (ATCC #CRL-1472), a human-derived osteosarcoma cell line, are plated at 200,000 cells per well in a 12 well plate with phenol red free MEM at 10% FBS. The next day the media is changed to phenol red free MEM at 0.1% FBS. […]
[…] The treated cells the stimulus, IL-1b, are then allowed to incubate for 16 hours at 37° C.
After 16 hours the cells are lysed and the RNA is extracted from the cells with the RNasy purification kit (Qiagen). RNA is reverse transcribed to cDNA and quantified by qPCR using 2-step qRT-PCR reagents (Invitrogen), and 4 μL of purified RNA. Annealing temperature is 57° C. in the Stratagene Mx4000 with 1 μL of RANK-L gene specific primers in a 50 μL reaction (10 μM initial concentration; HLUX3013920, Invitrogen Inc.).
RANK-L and GAPDH gene expression Ct data are obtained. RNA is quantified with adjustments for GAPDH expression. […]

[4] = test system: type IV collagenase protein (matrix metalloproteinase-9/MMP9); assay: MMP9 protein expression in IL-1B stimulated keratinocyte/fibroblast co-culture; type: cell-based; conditions: 10 ng/ml, stimulus alone; untreated 1.0
Method: Keratinocytes and fibroblasts were co-cultured in DMEM containing 0.5% BSA. Co-cultures were exposed to various concentrations of punicalagins (ranging from 0.1%-10%) were extracted from pomegranates. Specifically, the ability of the pomegranate extracts to inhibit type IV collagenase protein (matrix metalloproteinase-9/MMP9) expression at concentrations of 1.0 μg/ml, 10 μg/ml, and 100 μg/ml were tested. Following exposure to the pomegranate extracts, the co-culture cells were stimulated with 10 ng/ml of IL-1B for 18 hours. Following stimulation with IL-1B for 18 hours, and MMP9 concentration was determined in the media as shown below in Table 14.

CC(C)Oc1ccc2c(=O)c(-c3ccccc3)coc2c1 [I, 7-isopropoxy isoflavone]
BMP2 Promoter assay (ratio to control) (BMP-2 promoter; 0.05 μg/ml): 1.00 FOLD | BMP2 Promoter assay (ratio to control) (BMP-2 promoter; 0.1 μg/ml): 0.90 FOLD | BMP2 Promoter assay (ratio to control) (BMP-2 promoter; 0.2 μg/ml): 1.00 FOLD | BMP2 Promoter assay (ratio to control) (BMP-2 promoter; 0.4 μg/ml): 0.90 FOLD | BMP2 Promoter assay (ratio to control) (BMP-2 promoter; 0.8 μg/ml): 1.20 FOLD | BMP2 Promoter assay (ratio to control) (BMP-2 promoter; 1.6 μg/ml): 1.50 FOLD | BMP2 Promoter assay (ratio to control) (BMP-2 promoter; 3.2 μg/ml): 2.10 FOLD | BMP2 Promoter assay (ratio to control) (BMP-2 promoter; 6.3 μg/ml): 2.90 FOLD | BMP2 Promoter assay (ratio to control) (BMP-2 promoter; 12.5 μg/ml): 3.60 FOLD | BMP2 Promoter assay (ratio to control) (BMP-2 promoter; 25 μg/ml): 3.90 FOLD | BMP2 Promoter assay (ratio to control) (BMP-2 promoter; 50 μg/ml): 4.40 FOLD | BMP2 Promoter assay (ratio to control) (BMP-2 promoter; 100 μg/ml): 4.50 FOLD | BMP-2 Protein Expression (BMP-2 protein; 1 μg/ml): 2.4 FOLD | BMP-2 Protein Expression (BMP-2 protein; 10 μg/ml): 1.8 FOLD | BMP-2 Protein Expression (BMP-2 protein; 100 μg/ml): 1.8 FOLD | Fold Change in Gene Expression (BMP-2): No effect | Calvarial Assay Results- Bone formation (Neonatal murine calvaria; 1 μg/ml): 2.44 ± 0.66 mm^2 × 10^−3 | Calvarial Assay Results- Bone formation (Neonatal murine calvaria; 10 μg/ml): 6.05 ± 1.12 mm^2 × 10^−3 | Calvarial Assay Results- Bone formation (Neonatal murine calvaria; 100 μg/ml): 7.04 ± 0.69^a mm^2 × 10^−3 | RANK-L inhibition (%) (RANK-L [1]; 10 μg/ml, listed as Ipriflavone (Ostivone)): 0 ± 4.3% and 2.8 ± 3.9% and 0 ± 2.5% | % Change in Production/Release Levels (compared to untreated control) (RANK-L [1]; tested at 1 μg/ml): No effect | Inhibition of Bone Resorption/Release of Ca^2+, % Release ([2]; IL-1 + 1 μg/ml): 38.00 ± 1.41 % Release | Inhibition of Bone Resorption/Release of Calcium By Combinations of Extracts, % Release ([2]; IL-1 + 1 μg/ml): 29.75 ± 4.54 % Release | Inhibition of Bone Resorption/Release of Ca^2+, % Release ([2]; IL-1 + 10 μg/ml): 32.50 ± 3.30 % Release | Inhibition of Bone Resorption/Release of Calcium By Combinations of Extracts, % Release ([2]; IL-1 + 10 μg/ml): 30.25 ± 4.03 % Release | Inhibition of Bone Resorption/Release of Ca^2+, % Release ([2]; IL-1 + 100 μ/ml): 19.25 ± 1.03^a % Release | Inhibition of Bone Resorption/Release of Calcium By Combinations of Extracts, % Release ([2]; IL-1 ± 100 μg/ml): 17.50 ± 1.66^a % Release

IL1B: IL-1b stimulus (Calbiochem)
RANK-L Expression (fold increase) (RANK-L [3]): 3.3 ± 0 fold increase | MMP9 protein expression (fold of untreated) [4]: 1.65
